In patent publication US12091425B2 (AMGEN INC., priority 2016, dated 2024):

How the values were obtained:
[1] = biological target: T1, Mcl-1/Bim interaction, recombinant human Mcl-1 (171-327) (Homo sapiens, UniProt Q07820); assay: Cell free Mcl-1: Bim Affinity Assay (Mcl-1 HTRF); assay type: binding; conditions: TR-FRET, 0.1 nM Mcl-1 (171-327), 0.05 nM biotin-Bim (51-76)
T1 construct: made in house
In short: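 Biotin-Bim(51-76) peptide, TR-FRET readout, overnight incubation; IC50 from duplicate competition curves, 4-parameter fit.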

[2] = test system: OPM-2 human multiple myeloma cell line; assay: Cell Viability Assay (OPM-2 10 FBS); assay type: cell-based; conditions: Homo sapiens, OPM-2, 16 h, OPM-2 cells, 16 h, CellTiter-Glo
In short: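 ATP-based luminescence (CellTiter-Glo) measured after a 16 h compound treatment of OPM-2 cells seeded at 3000 cells/well in 10% FBS medium. IC50 values derived by 4-parameter logistic fitting of serial dilutions.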

T1 sequence (Q07820 171-327): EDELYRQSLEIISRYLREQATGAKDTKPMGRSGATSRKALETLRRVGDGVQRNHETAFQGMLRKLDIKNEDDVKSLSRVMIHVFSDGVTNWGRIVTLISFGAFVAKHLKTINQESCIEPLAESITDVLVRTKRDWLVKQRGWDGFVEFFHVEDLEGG

| IC50 [1] [nM] | IC50 [2] [nM] | SMILES |
| --- | --- | --- |
| 0.168 | 8160 | O=C(O)CCN1CC/C=C/[C@H](O)[C@@H]2CC[C@H]2CN2C[C@@]3(CCCc4cc(Cl)ccc43)COc3ccc(cc32)C(=O)NS1(=O)=O [Example 33, 3-((1S,3′R,6′R,7′S,8′E)-6-chloro-7′-hydroxy-13′,13′-dioxido-15′-oxo-3,4-dihydro-2H,12′H-spiro[naphthalene-1,22′-[20]oxa[13]thia[1,12,14]triazatetracyclo[14.7.2.0^3,6.0^19,24]pentacosa[8,16,18,24]tetraen]-12′-yl)propanoic Acid] |
| 0.62 | 3600 | CS(=O)(=O)CCN1CC/C=C/[C@H](O)[C@@H]2CC[C@H]2CN2C[C@@]3(CCCc4cc(Cl)ccc43)COc3ccc(cc32)C(=O)NS1(=O)=O [Example 34, (1S,3′R,6′R,7′S,8′E)-6-chloro-7′-hydroxy-12′-(2-(methylsulfonyl)ethyl)-3,4-dihydro-2H,15′H-spiro[naphthalene-1,22′-[20]oxa[13]thia[1,12,14]triazatetracyclo[14.7.2.0^3,6.0^19,24]pentacosa[8,16,18,24]tetraen]-15′-one 13′,13′-dioxide] |
| 1.55 | 1280 | CCN(CC)S(=O)(=O)CCN1CC/C=C/[C@H](O)[C@@H]2CC[C@H]2CN2C[C@@]3(CCCc4cc(Cl)ccc43)COc3ccc(cc32)C(=O)NS1(=O)=O [Example 35, 2-((1S,3′R,6′R,7′S,8′E)-6-chloro-7′-hydroxy-13′,13′-dioxido-15′-oxo-3,4-dihydro-2H,12′H-spiro[naphthalene-1,22′-[20]oxa[13]thia[1,12,14]triazatetracyclo[14.7.2.0^3,6.0^19,24]pentacosa[8,16,18,24]tetraen]-12′-yl)-N,N-diethylethanesulfonamide] |
| 0.535 | 2590 | O=C1NS(=O)(=O)NCC/C=C\[C@H](O)[C@@H]2CC[C@H]2CN2C[C@@]3(CCCc4cc(Cl)ccc43)COc3ccc1cc32 [Example 36, (1S,3′R,6′R,7′S,8′Z)-6-chloro-7′-hydroxy-3,4-dihydro-2H,15′H-spiro[naphthalene-1,22′-[20]oxa[13]thia[1,12,14]triazatetracyclo[14.7.2.0^3,6.0^19,24]pentacosa[8,16,18,24]tetraen]-15′-one 13′,13′-dioxide] |
| 0.614 | 2570 | CS(=O)(=O)CCN1CC/C=C\[C@H](O)[C@@H]2CC[C@H]2CN2C[C@@]3(CCCc4cc(Cl)ccc43)COc3ccc(cc32)C(=O)NS1(=O)=O [Example 37, (1S,3′R,6′R,7′S,8′Z)-6-chloro-7′-hydroxy-12′-(2-(methylsulfonyl)ethyl)-3,4-dihydro-2H,15′H-spiro[naphthalene-1,22′-[20]oxa[13]thia[1,12,14]triazatetracyclo[14.7.2.0^3,6.0^19,24]pentacosa[8,16,18,24]tetraen]-15′-one 13′,13′-dioxide] |
| 0.462 | 971 | O=C1NS(=O)(=O)N(CC2COC2)CC/C=C/[C@H](O)[C@@H]2CC[C@H]2CN2C[C@@]3(CCCc4cc(Cl)ccc43)COc3ccc1cc32 [Example 40, (1S,3′R,6′R,7′S,8′E)-6-chloro-7′-hydroxy-12′-(3-oxetanylmethyl)-3,4-dihydro-2H,15′H-spiro[naphthalene-1,22′-[20]oxa[13]thia[1,12,14]triazatetracyclo[14.7.2.0^3,6.0^19,24]pentacosa[8,16,18,24]tetraen]-15′-one 13′,13′-dioxide] |
| 0.57 | 842 | C=CCN1CC/C=C/[C@H](O)[C@@H]2CC[C@H]2CN2C[C@@]3(CCCc4cc(Cl)ccc43)COc3ccc(cc32)C(=O)NS1(=O)=O [Example 42, (1S,3′R,6′R,7′S,8′E)-6-chloro-7′-hydroxy-12′-(2-propen-1-yl)-3,4-dihydro-2H,15′H-spiro[naphthalene-1,22′-[20]oxa[13]thia[1,12,14]triazatetracyclo[14.7.2.0^3,6.0^19,24]pentacosa[8,16,18,24]tetraen]-15′-one 13′,13′-dioxide] |
| 0.995 | 536 | CCN1CC/C=C/[C@H](OCC(=O)OC)[C@@H]2CC[C@H]2CN2C[C@@]3(CCCc4cc(Cl)ccc43)COc3ccc(cc32)C(=O)NS1(=O)=O [Example 43, methyl(((1S,3′R,6′R,7′S,8′E)-6-chloro-12′-ethyl-13′,13′-dioxido-15′-oxo-3,4-dihydro-2H-spiro[naphthalene-1,22′-[20]oxa[13]thia[1,12,14]triazatetracyclo[14.7.2.0^3,6.0^19,24]pentacosa[8,16,18,24]tetraen]-7′-yl)oxy)acetate] |
| 0.562 | 524 | COCCO[C@H]1/C=C/CCN(CCOC)S(=O)(=O)NC(=O)c2ccc3c(c2)N(C[C@@H]2CC[C@H]21)C[C@@]1(CCCc2cc(Cl)ccc21)CO3 [Example 48, (1S,3′R,6′R,7′S,8′E)-6-chloro-7′-(2-methoxyethoxy)-12′-(2-methoxyethyl)-3,4-dihydro-2H,15′H-spiro[naphthalene-1,22′-[20]oxa[13]thia[1,12,14]triazatetracyclo[14.7.2.0^3,6.0^19,24]pentacosa[8,16,18,24]tetraen]-15′-one 13′,13′-dioxide] |
| 6.25 | 2380 | C[C@@H]1C/C=C/[C@H](O)[C@@H]2CC[C@H]2CN2C[C@@]3(CCCc4cc(Cl)ccc43)COc3ccc(cc32)C(=O)NS(=O)(=O)N1C[C@H]1CCCO1 [Example 55, (1S,3′R,6′R,7′S,8′E,11R)-6-chloro-7′-hydroxy-11′-methyl-12′-((2R)-tetrahydro-2-furanylmethyl)-3,4-dihydro-2H,15′H-spiro[naphthalene-1,22′-[20]oxa[13]thia[1,12,14]triazatetracyclo[14.7.2.0^3,6.0^19,24]pentacosa[8,16,18,24]tetraen]-15′-one 13′,13′-dioxide] |
| 4.27 | 7450 | CCN1[C@H](C)C/C=C/[C@H](O)[C@@H]2CC[C@H]2CN2C[C@@]3(CCCc4cc(Cl)ccc43)COc3ccc(cc32)C(=O)NS1(=O)=O [Example 59, (1S,3′R,6′R,7′S,8′E,11R)-6-chloro-12′-ethyl-7′-hydroxy-11′-methyl-3,4-dihydro-2H,15′H-spiro[naphthalene-1,22′-[20]oxa[13]thia[1,12,14]triazatetracyclo[14.7.2.0^3,6.0^19,24]pentacosa[8,16,18,24]tetraen]-15′-one 13′,13′-dioxide] |
| 2.31 | 492 | C[C@H]1C/C=C/[C@H](O)[C@@H]2CC[C@H]2CN2C[C@@]3(CCCc4cc(Cl)ccc43)COc3ccc(cc32)C(=O)NS(=O)(=O)N1CCN1CCOCC1 [Example 66, (1S,3′R,6′R,7′S,8′E,11′S)-6-chloro-7′-hydroxy-11′-methyl-12′-(2-(4-morpholinyl)ethyl)-3,4-dihydro-2H,15′H-spiro[naphthalene-1,22′-[20]oxa[13]thia[1,12,14]triazatetracyclo[14.7.2.0^3,6.0^19,24]pentacosa[8,16,18,24]tetraen]-15′-one 13′,13′-dioxide] |
| 1.51 | 450 | C[C@H]1C/C=C/[C@H](OCCN2CCOCC2)[C@@H]2CC[C@H]2CN2C[C@@]3(CCCc4cc(Cl)ccc43)COc3ccc(cc32)C(=O)NS(=O)(=O)N1 [Example 67, (1S,3′R,6′R,7′S,8′E,11′S)-6-chloro-11′-methyl-7′-(2-(4-morpholinyl)ethoxy)-3,4-dihydro-2H,15′H-spiro[naphthalene-1,22′-[20]oxa[13]thia[1,12,14]triazatetracyclo[14.7.2.0^3,6.0^19,24]pentacosa[8,16,18,24]tetraen]-15′-one 13′,13′-dioxide] |
